Columns and labels:
[1] = target: T1, Dictyostelium myosin II ADCT (Dictyostelium discoideum, UniProt P08799); assay: In vitro myosin assembly assay, with or without 14-3-3; assay type: biochemical; conditions: with or without purified 14-3-3
T1 construct: fused to the assembly domains of Dictyostelium myosin II (residues 1533-1823); 6xHis (N); mCherry (N); made in house; host or cells: E. coli BL-21 Star (DE3)
Source text: (§1) The sedimentation assays were used to assess myosin II assembly in cells. The assembly assay used purified proteins (N-terminal 6×His tag (SEQ ID NO: 1), fused to the mCherry fluorophore, fused to the assembly domains of Dictyostelium myosin II (residues 1533-1823), human myosin IIA (residues 1722-1960), and human myosin IIB (residues 1729-1976), and 6×His-tagged (SEQ ID NO: 1) fused Dictyostelium 14-3-3). Purified chicken nonmuscle IIB heavy meromyosin (HMM) was used for in vitro motility.
(§2) Bacterial expression plasmids coding for an N-terminal 6×His tag (SEQ ID NO: 1), fused to the mCherry fluorophore, fused to the assembly domains of Dictyostelium myosin II (residues 1533-1823), human myosin IIA (residues 1722-1960), or human myosin IIB (residues 1729-1976) were generated using standard cloning techniques.
Dictyostelium 14-3-3 was also expressed in bacteria as a 6×His-tagged (SEQ ID NO: 1) fusion protein (Zhou Q et al., 2010). Proteins were expressed in BL-21 Star™ (DE3) (Invitrogen) E. coli in LB shaking culture overnight at room temperature. […] Protein purity was verified by SDS-PAGE followed by Coomassie Blue staining, and concentration was quantified by UV absorbance using the calculated extinction coefficient for each protein's amino acid sequence. […]

human myosin IIA = target: T2, human myosin IIA (Homo sapiens, UniProt P35579); assay: In vitro myosin assembly assay; assay type: biochemical; conditions: n=3
T2 construct: human myosin IIA (residues 1722-1960); 6xHis (N); mCherry (N); made in house; host or cells: E. coli BL-21 Star (DE3)
Source text: as §1, §2
(§3) In vitro assembly of myosin was conducted according to the method of Zhou et al, 2010 (Zhou Q et al., 2010), with a number of modifications. The protein concentration for each species in the tube was increased to […] to ensure that the smaller protein was adequately visible by Coomassie Blue staining, and the incubation time and temperature was adjusted to 30 min at the physiological temperature for each myosin species (22° C. for Dictyostelium myosin, 37° C. for human myosins). These temperatures were also used during the centrifugation step.

human myosin IIB = target: T3, human myosin IIB (Homo sapiens, UniProt P35580); assay: In vitro myosin assembly assay; assay type: biochemical; conditions: n=3
T3 construct: human myosin IIB (residues 1729-1976); 6xHis (N); mCherry (N); made in house; host or cells: E. coli BL-21 Star (DE3)
Source text: as §1, §2, §3

[2] = system: chicken non-muscle IIB (NMIIB) HMM; assay: In vitro motility assay (gliding actin filaments); assay type: biochemical; conditions: 500 nM each alone; 250 nM each in 1:1 ratio
Source text: as §1
The chicken non-muscle IIB (NMIIB) HMM construct (residues 1-1228, GenBank™ accession number M93676, no splice insert) was purified as previously described (Norstrom M F, et al., 2010). Motility assays were performed at 22° C. and imaged on Zeiss Axiovert 200 microscope with an Andor Luca camera. The flow cells were constructed using a glass slide, two pieces of double-sided tape, and nitrocellulose-coated coverslip. Flow cells were incubated with 0.05 mg/ml green fluorescent protein antibodies (MP Biomedicals, 0.05 mg/ml in assay buffer (AB) without DTT: 25 mM KCl, 25 mM Imidazole·HCl, pH 7.5, 1 mM K·EGTA, 4 mM MgCl2; 2 min incubation time), followed by a bovine serum albumin block (1 mg/ml in AB—as above with 10 mM DTT; 6 min incubation time). NMIIB was added to the flow cell at a concentration of 420 nM and incubated for 2 min. […]

microtubule = assay: Microtubule structure; assay type: cell-based
myosin IIA = target: T4, myosin IIA (Homo sapiens, UniProt P35579); assay: Mammalian cell sedimentation assay; assay type: cell-based; conditions: human-derived cell lines
T4 construct: endogenous in cells; host or cells: HEK293, HPDE, ASPC-1
Description: (§4) Sedimentation protocol was adapted from the protocol above. 3×10^6 cells were pelleted for 5 min at 2000 rpm and washed in 1 ml PBS. The pellet was resuspended in 100 μl lysis buffer (50 mM PIPES, pH 6.8, 46 mM NaCl, 2.5 mM EGTA, 1 mM MgCl2, 1 mM ATP, 0.5% Triton X-100, and protease inhibitors—PI cocktail, PMSF, TLCK, Aprotinin). Samples were vortexed briefly and incubated on ice for 20 min, followed by centrifugation at 15,000 g for 5 min at 4° C.
(§5) Pellet was resuspended in 100 μl lysis buffer minus Triton X-100, and both pellet and supernatant fractions were heated to 100° C. for 3 min with RNaseA. Samples were incubated at 37° C. for 30 min and then heated to 100° C. in sample buffer for 5 min. Samples were loaded on a 15% SDS-polyacrylamide gel. Western blot analyses of phospho-myosin IIA was performed on whole cell lysates of cells treated as above in lysate buffer with 10 mM NaF.

myosin IIC = target: T5, myosin IIC (Homo sapiens, UniProt Q7Z406); assay: Mammalian cell sedimentation assay; assay type: cell-based
T5 construct: endogenous in cells; host or cells: HEK293, ASPC-1, HPDE
Description: as §4, §5

T5 sequence (Q7Z406 whole entry): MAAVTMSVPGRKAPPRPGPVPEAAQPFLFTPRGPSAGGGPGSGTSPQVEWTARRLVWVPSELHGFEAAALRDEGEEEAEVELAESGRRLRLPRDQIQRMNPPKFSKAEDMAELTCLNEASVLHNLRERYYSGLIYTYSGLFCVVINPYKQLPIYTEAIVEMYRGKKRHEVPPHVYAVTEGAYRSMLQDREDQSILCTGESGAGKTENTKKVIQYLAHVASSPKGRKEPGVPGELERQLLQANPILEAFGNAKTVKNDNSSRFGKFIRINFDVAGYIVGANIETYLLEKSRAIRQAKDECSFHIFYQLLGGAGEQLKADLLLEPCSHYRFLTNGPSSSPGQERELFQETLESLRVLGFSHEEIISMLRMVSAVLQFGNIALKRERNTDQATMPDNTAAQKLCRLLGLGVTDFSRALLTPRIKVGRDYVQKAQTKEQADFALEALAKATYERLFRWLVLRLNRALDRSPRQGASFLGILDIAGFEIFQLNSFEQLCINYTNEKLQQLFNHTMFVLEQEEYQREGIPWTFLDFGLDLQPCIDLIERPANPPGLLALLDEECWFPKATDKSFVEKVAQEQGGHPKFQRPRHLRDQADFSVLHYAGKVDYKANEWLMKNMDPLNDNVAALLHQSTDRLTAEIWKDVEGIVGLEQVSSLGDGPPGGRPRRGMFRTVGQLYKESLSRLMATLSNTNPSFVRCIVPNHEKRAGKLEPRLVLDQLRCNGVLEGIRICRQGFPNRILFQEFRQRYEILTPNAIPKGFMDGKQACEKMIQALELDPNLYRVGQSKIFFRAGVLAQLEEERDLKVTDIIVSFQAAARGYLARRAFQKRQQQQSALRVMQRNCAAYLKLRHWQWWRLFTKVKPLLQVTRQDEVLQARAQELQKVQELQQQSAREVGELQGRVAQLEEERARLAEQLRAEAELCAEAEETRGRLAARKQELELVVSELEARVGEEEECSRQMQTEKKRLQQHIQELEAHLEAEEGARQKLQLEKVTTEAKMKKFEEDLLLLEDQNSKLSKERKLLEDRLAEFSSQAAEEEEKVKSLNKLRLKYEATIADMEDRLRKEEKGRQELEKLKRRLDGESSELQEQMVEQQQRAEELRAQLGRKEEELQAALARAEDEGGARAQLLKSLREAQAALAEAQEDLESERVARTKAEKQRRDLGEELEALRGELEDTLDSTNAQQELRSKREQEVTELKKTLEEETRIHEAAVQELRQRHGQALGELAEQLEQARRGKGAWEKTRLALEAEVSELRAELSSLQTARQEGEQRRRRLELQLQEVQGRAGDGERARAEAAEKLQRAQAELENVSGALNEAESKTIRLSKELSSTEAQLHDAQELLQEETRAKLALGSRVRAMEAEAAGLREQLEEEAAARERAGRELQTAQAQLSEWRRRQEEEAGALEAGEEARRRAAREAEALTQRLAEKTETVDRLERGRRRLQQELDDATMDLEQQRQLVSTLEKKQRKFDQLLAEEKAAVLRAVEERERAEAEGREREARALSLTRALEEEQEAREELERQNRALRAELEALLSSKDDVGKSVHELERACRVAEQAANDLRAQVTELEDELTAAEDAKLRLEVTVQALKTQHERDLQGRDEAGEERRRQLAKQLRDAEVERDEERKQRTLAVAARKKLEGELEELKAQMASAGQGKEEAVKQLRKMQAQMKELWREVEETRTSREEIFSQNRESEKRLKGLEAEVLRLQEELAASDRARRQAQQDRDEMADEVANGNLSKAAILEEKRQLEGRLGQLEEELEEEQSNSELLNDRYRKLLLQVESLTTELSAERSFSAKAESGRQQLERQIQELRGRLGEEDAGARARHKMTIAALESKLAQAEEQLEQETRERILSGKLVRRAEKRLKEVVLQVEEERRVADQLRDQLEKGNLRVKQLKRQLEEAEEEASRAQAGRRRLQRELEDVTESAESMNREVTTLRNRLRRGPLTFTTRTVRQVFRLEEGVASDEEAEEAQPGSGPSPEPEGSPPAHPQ
T1 sequence (P08799 1533-1823): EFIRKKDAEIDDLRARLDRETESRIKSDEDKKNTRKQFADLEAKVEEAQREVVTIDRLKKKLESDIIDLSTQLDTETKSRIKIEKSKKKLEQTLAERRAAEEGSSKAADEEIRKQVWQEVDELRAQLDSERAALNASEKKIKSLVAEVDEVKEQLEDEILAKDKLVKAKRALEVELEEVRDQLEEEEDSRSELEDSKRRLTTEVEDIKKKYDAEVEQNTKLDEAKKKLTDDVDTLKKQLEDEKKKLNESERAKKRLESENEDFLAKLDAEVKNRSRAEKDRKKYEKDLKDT
T2 sequence (P35579 1722-1960): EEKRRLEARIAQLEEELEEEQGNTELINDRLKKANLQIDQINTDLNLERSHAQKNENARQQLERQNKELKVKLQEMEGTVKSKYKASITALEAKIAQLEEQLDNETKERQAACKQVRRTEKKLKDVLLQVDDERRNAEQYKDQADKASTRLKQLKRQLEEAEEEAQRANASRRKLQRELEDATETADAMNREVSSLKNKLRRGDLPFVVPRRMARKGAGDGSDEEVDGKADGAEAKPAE
T3 sequence (P35580 1729-1976): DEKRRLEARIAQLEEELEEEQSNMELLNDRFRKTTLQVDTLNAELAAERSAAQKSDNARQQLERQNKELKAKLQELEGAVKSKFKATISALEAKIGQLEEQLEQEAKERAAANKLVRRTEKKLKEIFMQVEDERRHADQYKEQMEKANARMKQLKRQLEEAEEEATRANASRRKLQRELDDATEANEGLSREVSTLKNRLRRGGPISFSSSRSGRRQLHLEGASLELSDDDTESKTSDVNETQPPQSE
T4 sequence (P35579 whole entry): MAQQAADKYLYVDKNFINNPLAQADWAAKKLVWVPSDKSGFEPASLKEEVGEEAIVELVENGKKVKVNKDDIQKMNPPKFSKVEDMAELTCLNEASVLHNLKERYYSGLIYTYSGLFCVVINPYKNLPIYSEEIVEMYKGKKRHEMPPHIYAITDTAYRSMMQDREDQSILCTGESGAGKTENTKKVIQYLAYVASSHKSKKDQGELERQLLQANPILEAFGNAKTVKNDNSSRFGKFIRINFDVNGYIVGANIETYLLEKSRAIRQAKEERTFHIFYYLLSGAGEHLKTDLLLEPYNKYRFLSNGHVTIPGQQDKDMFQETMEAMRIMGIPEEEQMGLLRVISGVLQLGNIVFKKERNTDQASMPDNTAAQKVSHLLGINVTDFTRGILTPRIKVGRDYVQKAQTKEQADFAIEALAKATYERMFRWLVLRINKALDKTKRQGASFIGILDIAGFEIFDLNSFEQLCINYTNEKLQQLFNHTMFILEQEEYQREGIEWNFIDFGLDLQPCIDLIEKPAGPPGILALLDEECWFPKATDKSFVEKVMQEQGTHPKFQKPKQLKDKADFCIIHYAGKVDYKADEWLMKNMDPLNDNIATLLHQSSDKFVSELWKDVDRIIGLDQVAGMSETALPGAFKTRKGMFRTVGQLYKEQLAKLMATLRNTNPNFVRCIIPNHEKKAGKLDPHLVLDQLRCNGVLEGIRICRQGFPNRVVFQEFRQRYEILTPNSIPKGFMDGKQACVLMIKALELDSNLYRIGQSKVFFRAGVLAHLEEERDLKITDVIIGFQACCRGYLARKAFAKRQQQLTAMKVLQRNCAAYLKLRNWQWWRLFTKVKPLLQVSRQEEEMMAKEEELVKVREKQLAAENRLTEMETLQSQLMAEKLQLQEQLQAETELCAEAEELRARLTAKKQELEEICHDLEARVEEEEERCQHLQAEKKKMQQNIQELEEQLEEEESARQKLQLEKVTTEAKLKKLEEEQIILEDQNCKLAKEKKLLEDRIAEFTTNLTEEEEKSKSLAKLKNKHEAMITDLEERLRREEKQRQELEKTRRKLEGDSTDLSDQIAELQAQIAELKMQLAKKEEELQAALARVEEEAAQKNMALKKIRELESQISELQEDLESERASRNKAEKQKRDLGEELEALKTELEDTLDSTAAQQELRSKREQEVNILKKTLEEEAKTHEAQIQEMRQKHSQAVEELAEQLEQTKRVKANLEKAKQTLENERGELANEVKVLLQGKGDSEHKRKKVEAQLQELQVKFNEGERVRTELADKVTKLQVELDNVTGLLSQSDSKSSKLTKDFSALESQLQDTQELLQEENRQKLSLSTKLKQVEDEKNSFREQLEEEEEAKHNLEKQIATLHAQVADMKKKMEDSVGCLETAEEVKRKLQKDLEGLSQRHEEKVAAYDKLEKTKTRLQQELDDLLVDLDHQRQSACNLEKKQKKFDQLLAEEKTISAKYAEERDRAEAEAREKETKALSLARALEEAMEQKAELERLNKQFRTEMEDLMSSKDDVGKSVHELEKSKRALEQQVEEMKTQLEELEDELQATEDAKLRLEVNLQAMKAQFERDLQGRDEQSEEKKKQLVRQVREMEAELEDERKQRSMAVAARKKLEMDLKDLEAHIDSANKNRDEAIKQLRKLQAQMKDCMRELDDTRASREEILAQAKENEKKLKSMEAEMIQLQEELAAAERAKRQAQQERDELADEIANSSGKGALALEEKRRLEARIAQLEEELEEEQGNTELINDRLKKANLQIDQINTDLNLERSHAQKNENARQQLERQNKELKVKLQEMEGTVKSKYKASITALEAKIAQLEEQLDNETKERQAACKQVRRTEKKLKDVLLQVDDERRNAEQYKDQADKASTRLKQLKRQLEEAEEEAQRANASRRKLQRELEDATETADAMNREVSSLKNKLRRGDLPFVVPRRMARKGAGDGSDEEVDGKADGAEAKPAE

SMILES: Nc1ccc(Cl)c(Cl)c1 [3,4-DCA, 3,4-dichloroaniline]
- in vitro assembly vs DMSO control [1]: no significant change in in vitro assembly
- in vitro assembly vs DMSO control (human myosin IIA): unaffected
- in vitro assembly vs DMSO control (human myosin IIB): unaffected
- non-muscle myosin IIB velocity (gliding filament velocity of actin filaments) [2]: no significant effect
- microtubule structure (microtubule): neither 3,4-DCA nor 4-HAP affected microtubule structure

SMILES: CC(=O)c1ccc(O)cc1 [4-HAP, 4-hydroxyacetophenone]
- in vitro assembly vs DMSO control [1]: no significant change in in vitro assembly
- in vitro assembly vs DMSO control (human myosin IIA): unaffected
- in vitro assembly vs DMSO control (human myosin IIB): unaffected
- non-muscle myosin IIB velocity (gliding filament velocity of actin filaments) [2]: no significant effect
- assembled myosin IIA (myosin IIA): showed little change
- assembled myosin IIC (myosin IIC; ASPC-1 cells, 500 nM, 1 hr): increases assembled myosin IIC
- assembled myosin IIC (myosin IIC; HEK293 cells, 500 nM, 1 hr): increases in assembled myosin IIB and IIC
- assembled myosin IIC (myosin IIC; wild type HPDE cells): increases assembled myosin IIC
- microtubule structure (microtubule): neither 3,4-DCA nor 4-HAP affected microtubule structure
